Data from US6982251B2, “Substituted 2-azetidinones useful as hypocholesterolemic agents” (Schering Corporation, priority 2000, dated 2006).

Key:
Hyperlipidemic Hamster = experiment: In Vivo Assay of Hypolipidemic Agents Using the Hyperlipidemic Hamster; settings: oral gavage once daily, 7 days, percent change versus control; for % Reduction in Plasma Cholesterol: cholesterol diet, negative = lowering; for % Reduction in Cholesterol Esters: hepatic cholesterol esters
Procedure: In Vivo Assay of Hypolipidemic Agents Using the Hyperlipidemic Hamster
Hamsters are separated into groups of six and given a controlled cholesterol diet (Purina Chow #5001 containing 0.5% cholesterol) for seven days. Diet consumption is monitored to determine dietary cholesterol exposure in the presence of test compounds. The animals are dosed with the test compound once daily beginning with the initiation of diet. Dosing is by oral gavage of 0.2 mL of corn oil alone (control group) or solution (or suspension) of test compound in corn oil. All animals moribund or in poor physical condition are euthanized. After seven days, the animals are anesthetized by IM injection of ketamine and sacrificed by decapitation. Blood is collected into Vacutainer™ tubes containing EDTA for plasma total cholesterol and triglyceride analysis and the liver excised for free and esterified cholesterol and triglyceride tissue analysis. Data is reported as percent reduction of plasma cholesterol and hepatic cholesterol esters versus control levels.
Data is reported as percent change (i.e., percent reduction in plasma cholesterol and in hepatic cholesterol esters) versus control, therefore, negative numbers indicate a positive cholesterol-lowering effect.

human jejunum microsomes = experiment: Incubation with human jejunum microsomes supplemented with UDPGA; type: in vitro ADME; settings: No hydrolysis; after 2 hr incubation of human jejunum microsomes with 50 μM Compound 6A + UDPGA
β-Glucuronidase = β-Glucuronidase hydrolysis of the glucuronide mixture obtained from jejunum microsomes; type: in vitro ADME; settings: for Outcome of β-glucuronidase hydrolysis: after hydrolyzing for 18 h

O=C1[C@H](CC[C@H](O)c2ccc(F)cc2)[C@@H](c2ccc(O)cc2)N1c1ccc(F)cc1 [Compound 6A, ezetimibe]
% Reduction in Plasma Cholesterol (Hyperlipidemic Hamster; dose 1 mg/kg): −59%
% Reduction in Cholesterol Esters (Hyperlipidemic Hamster; dose 1 mg/kg): −95%
% of Compound 6A (human jejunum microsomes): 32.06%
% of Compound 6A (β-Glucuronidase; Control: 180 min, No microsomes, No UDPGA): 72.92%
% of Compound 6A (β-Glucuronidase; hydrolysis time 5 min): 68.10%
% of Compound 6A (β-Glucuronidase; hydrolysis time 10 min): 61.88%
% of Compound 6A (β-Glucuronidase; hydrolysis time 20 min): 66.02%
% of Compound 6A (β-Glucuronidase; hydrolysis time 30 min): 80.14%
% of Compound 6A (β-Glucuronidase; hydrolysis time 180 min): 84.67%

O=C(O)C1OC(O[C@@H](CCC2C(=O)N(c3ccc(F)cc3)C2c2ccc(O)cc2)c2ccc(F)cc2)[C@H](O)[C@@H](O)[C@@H]1O (some centres unmarked) [Compound III]
% of Compound III (Benzylic Glucuronide) (human jejunum microsomes): 32.14%
Outcome of β-glucuronidase hydrolysis (β-Glucuronidase): hydrolyzed to form a single Compound 6A peak
% of Compound III (Benzylic Glucuronide) (β-Glucuronidase; hydrolysis time 5 min): 19.30%
% of Compound III (Benzylic Glucuronide) (β-Glucuronidase; hydrolysis time 10 min): 18.58%
% of Compound III (Benzylic Glucuronide) (β-Glucuronidase; hydrolysis time 20 min): 15.12%
% of Compound III (Benzylic Glucuronide) (β-Glucuronidase; hydrolysis time 30 min): 11.22%
% of Compound III (Benzylic Glucuronide) (β-Glucuronidase; hydrolysis time 180 min): 6.5%

O=C(O)[C@H]1O[C@@H](Oc2ccc([C@@H]3[C@@H](CC[C@H](O)c4ccc(F)cc4)C(=O)N3c3ccc(F)cc3)cc2)[C@H](O)[C@@H](O)[C@@H]1O [Example 1]
% Reduction in Plasma Cholesterol (Hyperlipidemic Hamster; dose 3 mg/kg): −58%
% Reduction in Cholesterol Esters (Hyperlipidemic Hamster; dose 3 mg/kg): −95%
% of Example 1 (Phenolic Glucuronide) (human jejunum microsomes): 31.68%
Relative rate of β-glucuronidase hydrolysis (β-Glucuronidase; 5, 10, 20, 30 and 180 min): hydrolyzed at a faster rate than Compound III
Outcome of β-glucuronidase hydrolysis (β-Glucuronidase): hydrolyzed to form a single Compound 6A peak
% of Example 1 (Phenolic Glucuronide) (β-Glucuronidase; hydrolysis time 5 min): 2.23%
% of Example 1 (Phenolic Glucuronide) (β-Glucuronidase; hydrolysis time 10 min): 1.04%
% of Example 1 (Phenolic Glucuronide) (β-Glucuronidase; hydrolysis time 20 min): 0.77%
% of Example 1 (Phenolic Glucuronide) (β-Glucuronidase; hydrolysis time 30 min): 0%
% of Example 1 (Phenolic Glucuronide) (β-Glucuronidase; hydrolysis time 180 min): 0%
